Test results from US20100317642A1, “PHARMACEUTICAL COMPOSITION OF ORLISTAT” (INVENTIS DDS PVT LIMITED, priority 2007, published 2010).

Assays:
[1] = Effect of elevated temperature on appearance and handling properties (hot air oven, Petri dishes); format: physicochemical; settings: for Appearance and handling properties at elevated temperature: hot air oven
Source text: The affect of elevated temperature on appearance and handling properties on the orlistat compositions of this invention was studied by slowly increasing the temperature of a hot air oven in which these compositions were kept in Petri dishes. Pure orlistat also was subjected to this study. To carry out a comparison with the innovator's formulation Xenical®, its contents were emptied in a Petri dish. The observations of this study are given below—

[2] = within the physiological pH range; cited from earlier work

- Appearance and handling properties at elevated temperature ([1]; 30 ° C.): No change
- Appearance and handling properties at elevated temperature ([1]; 35 ° C., -do- = same as cell above): -do-
- Appearance and handling properties at elevated temperature ([1]; 37 ° C., -do- = same as cell above): softens
- Appearance and handling properties at elevated temperature ([1]; 40 ° C.): Starts melting
- Appearance and handling properties at elevated temperature ([1]; 45 ° C., cells wrap: 'Slightly soft and sticky', 'Melts completely'): Melts
- Appearance and handling properties at elevated temperature ([1]; 50 ° C., -do- = same as cell above, Xenical cell wraps: 'Slightly soft and sticky, becomes powdery on touching'): -do-
- Appearance and hardness after heating ([1]; Cooled down to less than 30° C., cells wrap: 'Regains its original hardness', 'Does not retain its original appearance'): Does not retain
SMILES: CCCCCCCCCCC[C@@H](C[C@@H]1OC(=O)[C@H]1CCCCCC)OC(=O)[C@H](CC(C)C)NC=O [Orlistat, orlistat]
- solubility in water [2]: very low solubility
